Melting point data for 91 compounds are collected here from a melting point compilation (Tetko et al.; mined from patent text by program, amines drawn as free bases though some values may be those of a salt).

Structures are written as SMILES. Non-standard residues stand in square brackets, D forms with d. Residues, ends and D or L forms follow the SMILES beside them. *: point of attachment. Leu(ol) = CC(C)C[C@H](N)CO; Cbz = O=C(OCc1ccccc1)* A value given as a limit tells only on which side of the number the result lay.

A word on the melting point: it is the temperature, or range, at which the solid turns liquid. In turn, `OC(CCN1CC=C(c2ccccc2)CC1)c1ccc(CCc2ccc(Cl)cc2)cc1` (stereo unspecified) displayed a melting point of 158 to 160 °C.

With `CC1=CC(O)C(OC(=O)c2cccc(N)c2)C(C)(C)CC1=O` (stereo unspecified), the melting point lay within 121 to 123 °C.

On to `NS(=O)(=O)c1ccc(-n2nc(C(F)(F)F)cc2-c2nc3ccccc3s2)cc1`, for which the melting point lay within 254 to 256 °C.

Take `CC(C)c1nc2c([nH]1)C(=O)N1CCN=C1N2Cc1ccccc1Cl`: the melting point was 250 to 255 °C.

Consider `O=C(c1ccc(-c2ccccc2)cc1)c1cccnc1Cl`, for which the melting point lay within 128 to 132 °C.

The compound `CSCCOC(=O)N(C)c1nnc(-c2cccnc2)s1` had a melting point of 126 to 128 °C.

Compound `O=[N+]([O-])c1cccc(CN2CCC(c3cc(-c4ccc(Cl)cc4)[nH]n3)CC2)c1` showed a melting point of 174 to 176 °C.

Consider `O=C(O)Cn1cc(C(=O)O)c(=O)c2cccc(Br)c(=O)c21`, for which the melting point fell in the range of 173 to 175 °C.

Compound `CNC(=O)CSC(c1ccccc1)(c1ccccc1)c1ccccc1` gave a melting point of 200 to 210 °C.

On to `N#CCCNC(=O)c1cccc(-c2cc3c(ccn3Cc3ccc(Cl)cc3Cl)cn2)c1`, for which the melting point lay within 199 to 200 °C.

Regarding `CC(C)C(C)Nc1c(NCc2ccc(C#N)cc2)c(=O)c1=O` (stereo unspecified), the melting point lay within 257 to 260 °C.

In the case of `CCCc1c(OCC(C)CC(=O)NCCCCc2cccnc2)ccc(C(C)=O)c1O` (stereo unspecified), the melting point was in the range of 58 to 60 °C.

As to `CC(Cc1cc(C(=O)c2ccccc2)ccc1OC(=O)C(C)(C)C)C(=O)O` (stereo unspecified), the melting point is 119 to 120 °C.

`COP(=O)(OC)C(O)C(CC1CCCCC1)NC(=O)C(CC(C)C)NC(=O)OC(C)(C)C` (stereo unspecified) registered a melting point of 157 °C.

For `Nc1nc2cc[nH]c2c(=O)[nH]1`, the melting point was over 300 °C.

Regarding `Cc1ccc2c(c1)C(=O)c1ccc(-c3nnn[nH]3)cc1S2(=O)=O`, the melting point turned out to be 267 °C.

The compound `CCc1cc(NC(=O)N2CCN(c3ccsc3)CC2)c(OC)nc1C` gave a melting point of 108 to 110 °C.

`O=S(=O)(c1ccccc1)n1c2ccc(C=Cc3ccccc3)cc2c2c(Cl)ccnc21` had a melting point of 216 to 218 °C.

`CC(C)C[C@@H](CO)NC(=O)[C@H](Cc1c[nH]cn1)NC(=O)[C@H](Cc1ccccc1)NC(=O)OCc1ccccc1` (Cbz-Phe-His-[Leu(ol)]) gave a melting point of 181 to 183 °C.

In the case of `CCOc1c(C)ccc2c1c1cc(Br)ccc1n2C(=O)OC(C)(C)C`, the melting point came to 137 °C.

Regarding `CC(C)c1c(Cl)nc2ncnn2c1Cl`, the melting point amounted to 119 °C.

As for `O=C1C=C(Nc2ccc(F)cc2)CCN1`, the melting point fell in the range of 195 to 198 °C.

As to `CC1(C)Oc2ccncc2[C@@H](Oc2ccccn2)[C@@H]1O` (relative stereo), the melting point is 207 °C.

The compound `CC(=O)O[C@H]1C=C[C@@H](O)C1` displayed a melting point of 48 to 49 °C.

For `c1ccc(COc2cccc3sncc23)cc1`, the melting point lay within 47 to 49 °C.

`CC(O)=C(C#N)C(=O)Nc1ccc(Cl)cc1Cl` returned a melting point of 143 to 144 °C.

`COC(=O)CC=CC=Cc1ccccc1`: the melting point came out at 71 °C.

Take `Cn1ncnc1COc1nn2c(-c3ccccc3F)nncc2c1-c1ccc(F)cc1`: the melting point was 192 °C.

On to `CCOC(=O)c1ccc(OCCSc2ccccc2)cc1`, for which the melting point was in the range of 50 to 51 °C.

For `CC(CN=C1c2cccc3cccc(c23)N1C(c1ccccc1)c1ccccc1)Cn1ccnc1` (stereo unspecified), the melting point fell in the range of 51 to 56 °C.

For the compound `CC(=O)NC1CCN(c2ccc(Cl)cn2)CC1`, the melting point lay within 196 to 198 °C.

The compound `N#Cc1c(Br)c(Br)n(Cc2ccccc2)c1-c1ccc(C(F)(F)F)cc1` showed a melting point of 145 to 147 °C.

On to `O=C(O)c1cc(C(F)(F)F)cc(F)c1F`, for which the melting point was in the range of 94 to 96 °C.

On to `Cc1[nH]c2ccc(CCN3CCN(C)CC3)cc2c1C(=O)OCc1ccccc1`, for which the melting point was 167 to 168 °C.

Take `CCc1ncnc(N[C@H]2CC[C@@H](C(C)(C)O)CC2)c1Cl`: the melting point fell in the range of 75 to 76 °C.

Compound `O=c1oc(-c2ccccc2F)nc2c(Cl)ccc(Cl)c12` returned a melting point of 140 °C.

The compound `Cc1nc(-c2ccccc2)ncc1CN1CCN(c2ccc(O)cc2)CC1` yielded a melting point of 201 to 202 °C.

`Cn1c(=O)c2cccc(N)c2c(=O)c2ccccc21` showed a melting point of 171 to 173 °C.

The compound `COc1cc(C(=O)N(C(C)C)C2CCCCC2)ccc1Cn1c(CN(C)C)nc2cccnc21` registered a melting point of 124 to 125 °C.

For `CC(C)(C)c1cc(-c2n[nH]c(=S)s2)cc(C(C)(C)C)c1O`, the melting point lay in the range of 190 to 191 °C.

For `COc1ccc2nc(CBr)sc2c1`, the melting point lay in the range of 78 to 81 °C.

The compound `CC1(C)C(=O)N(c2ccccc2)C(=S)N1c1ccc(OCc2ccccc2)cc1` displayed a melting point of 208 to 210 °C.

The compound `Cn1c(=O)c2c3oc4ccccc4oc3c3[nH]c4cc(O)ccc4c3c2c1=O` returned a melting point of 360 °C.

As for `Cc1nc2c(Cl)cc3nc(O)c(O)nc3c2nc1C`, the melting point was over 300 °C.

For the compound `CCN1CCCC1CNC(=O)c1cc(N(C)S(=O)(=O)CC)ccc1OC` (stereo unspecified), the melting point was in the range of 85 to 87 °C.

In the case of `CCOC=Nc1sc2c(c1C#N)CCN(C)C2`, the melting point was in the range of 88 to 89 °C.

Compound `CN(C)C1(c2ccccc2)CCC(CNCCc2c[nH]c3ccccc23)CC1` (stereo unspecified) displayed a melting point of 78 to 83 °C.

Regarding `CCCCCN(C(=O)Nc1ccc(C(=O)O)cc1F)c1ccc2c(c1)C(C)(C)CCC2(C)C`, the melting point fell in the range of 151 to 157 °C.

`CC(C)(C)OC(=O)CC1(CC(=O)O)CCC(=O)Nc2ccccc21` (stereo unspecified) returned a melting point of 117 to 119 °C.

Regarding `CCOc1cc(C(C)C)c2c(c1)S(=O)(=O)N(COC(=O)c1c(Cl)cccc1Cl)C2=O`, the melting point was in the range of 140 to 141 °C.

Compound `COc1ccccc1N1CCN(CCc2ccc(OC(=O)C(C)(C)C)c3ncccc23)CC1` registered a melting point of 115 °C.

Take `NC(N)=Nc1nc(-c2cccc(CNC(=O)C3CCCNC3)n2)cs1` (stereo unspecified): the melting point lay within 227 to 228 °C.

The compound `Cc1nnc(-c2ccc3occ(-c4cc(C(F)(F)F)ccc4F)c3c2)o1` came in with a melting point of 178 to 179 °C.

`COc1cnc(C#N)c(C)c1` showed a melting point of 80 to 81 °C.

`CCCCCc1cc2c(nc(O)n2CC2CCOCC2)c(N)n1` registered a melting point of over 250 °C.

In the case of `N#CCc1nn(-c2ccccn2)c(N)c1C#N`, the melting point lay within 178 to 179 °C.

Compound `O=P(O)(O)C(F)P(=O)(O)O` displayed a melting point of 162 to 163 °C.

`O=C(OC1CCCCCC1=O)c1ccccc1` (stereo unspecified) came in with a melting point of 59 to 60 °C.

Compound `CC(C)(C)OC(=O)N1CCC[C@H]1C(=O)N1CCN(C(=O)c2ccc(C#N)cc2)CC1` returned a melting point of 50 °C.

`CCOC(=O)C(=O)Nc1cc(Cl)cc(NC(=O)C(=O)OCC)n1` registered a melting point of 164 to 166 °C.

In turn, `O=C(OC(c1ccc(Cl)cc1Cl)C(Oc1ccc(Cl)cc1)n1cncn1)c1ccc(Cl)cc1Cl` (stereo unspecified) returned a melting point of 132 to 135 °C.

As to `c1ccc2c(c1)ncc1nc(-c3nnn[nH]3)cn12`, the melting point lay in the range of 320 to 322 °C.

As for `NC(=O)N1CCN(c2ccc(O)c(O)c2)C1=O`, the melting point was over 250 °C.

Compound `CCOC(=O)C(=O)NCc1ccccc1` displayed a melting point of 47 to 50 °C.

The compound `CN1C(=O)C(Cc2ccccc2)Oc2ccc([N+](=O)[O-])cc21` (stereo unspecified) registered a melting point of 166 to 169 °C.

Compound `CCn1c2c(c3ccccc31)C(=O)NCC2` returned a melting point of 203 to 204 °C.

`CCOC(=O)c1cnc2c(c1O)CCCCCCCC2`: the melting point lay in the range of 212 to 230 °C.

The compound `COC(=O)c1cn(-c2ccc(F)cc2)c(-c2ccc(N(C)C)c(C)c2)cc1=O` gave a melting point of 217 to 220 °C.

For `CCCCCCCCCCCCCC(=O)Nc1ccc(Cl)c(NC(=CC(=O)OCC)OCC)c1`, the melting point was in the range of 115 to 118 °C.

Take `Nc1cc(I)c(I)cc1[N+](=O)[O-]`: the melting point is 196 to 197 °C.

Compound `CCOC(=O)c1c(NCCCN(C)C)c2ccc(C)nc2n(CC)c1=O` had a melting point of 75 °C.

In the case of `CCN1CCC(O)(c2cc(F)cc(Cl)c2)C1` (stereo unspecified), the melting point is 117 to 118 °C.

`O=[N+]([O-])c1ccccc1NC(CO)c1c(Cl)cccc1Cl` (stereo unspecified) yielded a melting point of 128 °C.

Compound `CCOC(=O)c1cc2c(nc(C)n2C)c2c1CCC(c1ccccc1)O2` (stereo unspecified) showed a melting point of 172 to 173 °C.

As to `Fc1ccc(-c2nc(SCCCCSc3nc(-c4ccc(F)cc4)c(-c4ccc(F)cc4)[nH]3)[nH]c2-c2ccc(F)cc2)cc1`, the melting point was 172 to 174 °C.

Regarding `CCOC(=O)Cc1[nH]c(C(=O)c2ccccc2)c(C)c1C(=O)OCC`, the melting point fell in the range of 152 to 154 °C.

On to `COC(=O)c1ccc(OCCc2c[nH]cn2)cc1`, for which the melting point fell in the range of 116 to 118 °C.

In the case of `CCN(c1nc(C)cc(C(O)c2cnccc2-c2ccccc2OC)n1)c1ccc(C(C)C)cc1Br` (stereo unspecified), the melting point was in the range of 68 to 70 °C.

With `Cn1cc(CNC(=O)c2cc(N3CCN(Cc4ccc(F)cc4)C3=O)n[nH]2)cn1`, the melting point is 244 to 245 °C.

Compound `Cc1cc(C)c2sc(N)nc2c1` gave a melting point of 142 to 144 °C.

For `Cc1nc(-c2ccc(C(F)(F)F)cc2)ccc1CO`, the melting point fell in the range of 76 to 78 °C.

Compound `COc1ccc([N+](=O)[O-])cc1CBr` yielded a melting point of 78 °C.

With `CCc1cn(C(C)C(=O)N(C)C)nc1-c1ccccc1` (stereo unspecified), the melting point was in the range of 73.5 to 75 °C.

As for `COc1ccc(C(Cl)Sc2ccc(Cl)cc2)cc1` (stereo unspecified), the melting point is 76 to 77 °C.

For `Cc1c(C#N)sc2nc(-c3ccc([N+](=O)[O-])cc3)nc(N3CCNCC3)c12`, the melting point stood at 250 °C.

For `NC(=O)COc1ccc(CCN2CCC(Nc3nc4ccccc4n3Cc3ccc(F)cc3)CC2)cc1`, the melting point came to 180 °C.

`CC(C)C[C@H](C(=O)OCc1ccccc1)N1CC[C@]2(CCCN2C(=O)C(C)C)C1=O` showed a melting point of 87 °C.

The compound `NC(=O)c1cccc(-c2ccc(F)c3cc(Cc4cc(F)cc(Cl)c4)sc23)c1` returned a melting point of 168 to 169 °C.

Compound `COC(=O)[C@H]1[C@@H](NC(=O)OC(C)(C)C)C(=O)N1Cc1ccc(OC)cc1OC` (relative stereo) had a melting point of 134 to 135 °C.

Take `Cc1ccn2c(Br)c(CCc3ccc4nc(N)sc4c3)nc2c1`: the melting point was 233 to 236 °C.

`COc1ccc2cc([C@H](C)C(=O)OCC(=O)COC(=O)Cc3ccc(CO[N+](=O)[O-])cc3)ccc2c1`: the melting point lay within 92 to 95 °C.
